In ChEMBL document CHEMBL1201862, “PubChem BioAssay data set” (2004):
The source made the active and inactive calls.

Assays:
[1] = target: T1, Polyadenylate-binding protein 1 (Homo sapiens, UniProt P11940); test: PABP1 MLLE–PAM2 interaction inhibitors, dose response, miRNA deadenylation inhibitor project, biochemical, fluorescence polarization, Cy5-PAM2 peptide, secondary (AID 602260); format: functional; details: read-out: IC50_Mean
[2] = target: T1, Polyadenylate-binding protein 1; test: PABP1 MLLE–PAM2 binding inhibitor potency, dose response, biochemical, fluorescence polarization, FITC-PAM2 peptide (AID 602259); format: functional; details: read-out: IC50_Mean
Protein skinhead-1 = target: T2, Protein skinhead-1 (Caenorhabditis elegans, UniProt P34707); format: functional
T2 sequence (P34707 whole entry): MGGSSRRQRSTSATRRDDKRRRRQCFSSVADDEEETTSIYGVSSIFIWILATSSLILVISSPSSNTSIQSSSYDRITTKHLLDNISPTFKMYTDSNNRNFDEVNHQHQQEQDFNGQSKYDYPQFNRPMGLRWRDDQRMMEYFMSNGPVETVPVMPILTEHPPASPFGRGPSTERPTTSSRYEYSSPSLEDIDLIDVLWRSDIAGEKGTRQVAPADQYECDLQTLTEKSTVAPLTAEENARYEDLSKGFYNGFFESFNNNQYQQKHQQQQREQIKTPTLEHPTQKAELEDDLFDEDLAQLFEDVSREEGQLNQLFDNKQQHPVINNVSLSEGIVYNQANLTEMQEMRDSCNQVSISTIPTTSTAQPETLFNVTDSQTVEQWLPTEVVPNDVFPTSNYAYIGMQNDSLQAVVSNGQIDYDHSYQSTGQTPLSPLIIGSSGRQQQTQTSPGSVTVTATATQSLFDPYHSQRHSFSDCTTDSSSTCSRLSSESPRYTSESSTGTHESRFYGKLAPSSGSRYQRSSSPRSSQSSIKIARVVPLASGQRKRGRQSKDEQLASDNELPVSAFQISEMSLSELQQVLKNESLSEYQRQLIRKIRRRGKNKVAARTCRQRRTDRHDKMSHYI

[3] = Shn3 3'UTR reporter inhibitors, dose response, cell-based, Clone20 osteoblasts, firefly luciferase, cherry-picked (AID 624132); format: functional;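 further: firefly luciferase luminescence from reporter carrying the Shn3 3'UTR in osteoblasts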
[4] = HepG2 cell cytotoxicity, dose response, cytotoxicity control for Shn3 inhibitor project, CellTiter-Glo, cherry-picked (AID 624134); format: functional, cell-based
[5] = control 3'UTR Renilla luciferase suppression, dose response, counter-screen for Shn3 inhibitor project, cell-based, Clone20-Shn3RL, cherry-picked (AID 624133); format: functional
[6] = target: T3, RNA-binding protein pos-1 (Caenorhabditis elegans, UniProt G5EF15); test: inhibitors of POS-1/mex-3 RNA binding, dose response, biochemical, fluorescence polarization (AID 1964);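 further: purified POS-1 fused to maltose binding protein made in E. coli; potency of compounds blocking POS-1 binding to fluorescent RNA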
T3 sequence (G5EF15 whole entry): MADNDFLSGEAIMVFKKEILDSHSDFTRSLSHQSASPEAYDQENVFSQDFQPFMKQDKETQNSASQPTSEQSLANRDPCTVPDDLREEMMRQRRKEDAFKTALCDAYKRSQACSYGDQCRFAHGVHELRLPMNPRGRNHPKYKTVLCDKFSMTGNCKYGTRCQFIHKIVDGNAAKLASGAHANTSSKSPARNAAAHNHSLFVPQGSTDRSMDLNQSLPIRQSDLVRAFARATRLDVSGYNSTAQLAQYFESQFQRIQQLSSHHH

[7] = target: T4, Zinc finger protein mex-5 (Caenorhabditis elegans, UniProt Q9XUB2); test: MEX-5/TCR-2 RNA interaction inhibitors, dose response, biochemical, C. elegans, fluorescence polarization (AID 1960)
T4 sequence (Q9XUB2 whole entry): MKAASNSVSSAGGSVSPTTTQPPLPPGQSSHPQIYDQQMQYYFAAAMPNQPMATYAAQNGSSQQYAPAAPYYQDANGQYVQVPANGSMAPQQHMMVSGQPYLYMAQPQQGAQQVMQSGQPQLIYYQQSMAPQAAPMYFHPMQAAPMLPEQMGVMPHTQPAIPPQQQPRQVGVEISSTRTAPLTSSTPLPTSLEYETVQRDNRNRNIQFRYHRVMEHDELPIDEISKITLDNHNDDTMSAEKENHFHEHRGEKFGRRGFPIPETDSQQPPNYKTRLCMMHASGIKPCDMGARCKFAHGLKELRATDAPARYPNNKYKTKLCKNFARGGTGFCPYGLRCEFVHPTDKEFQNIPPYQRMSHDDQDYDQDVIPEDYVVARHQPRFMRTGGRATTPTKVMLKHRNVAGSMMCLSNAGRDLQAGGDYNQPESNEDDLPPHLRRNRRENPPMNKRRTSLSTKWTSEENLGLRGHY

cells = format: functional
[8] = target: T5, Corticotropin-releasing factor receptor 2/Corticotropin-releasing factor-binding protein (Homo sapiens, UniProt P24387+Q13324); test: activators of CRF receptor 2 with binding protein – uHTS hits, confirmation (AID 602473); format: functional; details: read-out: EC50_Mean
T5 sequence (Q13324 whole entry): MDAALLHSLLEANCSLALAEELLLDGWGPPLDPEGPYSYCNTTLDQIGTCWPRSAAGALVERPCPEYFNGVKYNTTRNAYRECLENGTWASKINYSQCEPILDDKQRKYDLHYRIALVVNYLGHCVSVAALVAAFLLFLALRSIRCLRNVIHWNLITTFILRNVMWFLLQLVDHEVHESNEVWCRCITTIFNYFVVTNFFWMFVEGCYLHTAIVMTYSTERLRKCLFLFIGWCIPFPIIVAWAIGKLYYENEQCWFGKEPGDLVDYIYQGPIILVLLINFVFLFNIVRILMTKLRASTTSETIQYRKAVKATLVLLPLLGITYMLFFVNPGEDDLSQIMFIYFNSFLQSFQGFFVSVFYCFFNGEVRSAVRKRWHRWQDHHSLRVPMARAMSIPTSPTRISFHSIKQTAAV
T5 sequence (P24387 whole entry): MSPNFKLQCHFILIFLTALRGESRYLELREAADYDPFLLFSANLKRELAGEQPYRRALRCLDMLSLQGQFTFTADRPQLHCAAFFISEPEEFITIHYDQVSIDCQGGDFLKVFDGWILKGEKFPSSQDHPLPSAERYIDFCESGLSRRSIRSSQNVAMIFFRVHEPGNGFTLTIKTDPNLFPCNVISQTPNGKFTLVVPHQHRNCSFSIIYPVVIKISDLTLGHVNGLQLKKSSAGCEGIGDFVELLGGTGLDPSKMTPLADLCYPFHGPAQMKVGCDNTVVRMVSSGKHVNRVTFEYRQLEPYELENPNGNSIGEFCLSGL

[9] = inhibitors of HIV Env-driven cell fusion, dose response, cherry-pick (AID 652057); format: functional, cell-based
[10] = target: T6, High affinity choline transporter 1 (Homo sapiens, UniProt Q9GZV3); test: CHT inhibitors, dose response, cell-based, 5-point CRC, membrane potential dye (AID 504840); format: functional
T6 sequence (Q9GZV3 whole entry): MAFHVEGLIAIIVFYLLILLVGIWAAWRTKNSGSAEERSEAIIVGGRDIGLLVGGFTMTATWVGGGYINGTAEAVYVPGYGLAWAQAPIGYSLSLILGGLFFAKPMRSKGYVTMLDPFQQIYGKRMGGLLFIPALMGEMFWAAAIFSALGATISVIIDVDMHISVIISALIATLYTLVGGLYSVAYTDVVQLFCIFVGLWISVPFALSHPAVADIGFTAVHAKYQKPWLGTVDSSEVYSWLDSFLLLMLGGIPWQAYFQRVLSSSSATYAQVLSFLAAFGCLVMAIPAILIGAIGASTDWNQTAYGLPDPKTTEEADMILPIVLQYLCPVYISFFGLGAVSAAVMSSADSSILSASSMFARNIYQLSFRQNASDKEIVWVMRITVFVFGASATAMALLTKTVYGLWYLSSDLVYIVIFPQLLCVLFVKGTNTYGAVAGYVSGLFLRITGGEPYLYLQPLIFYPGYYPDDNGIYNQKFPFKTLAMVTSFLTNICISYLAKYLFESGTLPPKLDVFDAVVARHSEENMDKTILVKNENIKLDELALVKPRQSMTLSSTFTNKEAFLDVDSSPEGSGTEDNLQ

T1 sequence (P11940 whole entry): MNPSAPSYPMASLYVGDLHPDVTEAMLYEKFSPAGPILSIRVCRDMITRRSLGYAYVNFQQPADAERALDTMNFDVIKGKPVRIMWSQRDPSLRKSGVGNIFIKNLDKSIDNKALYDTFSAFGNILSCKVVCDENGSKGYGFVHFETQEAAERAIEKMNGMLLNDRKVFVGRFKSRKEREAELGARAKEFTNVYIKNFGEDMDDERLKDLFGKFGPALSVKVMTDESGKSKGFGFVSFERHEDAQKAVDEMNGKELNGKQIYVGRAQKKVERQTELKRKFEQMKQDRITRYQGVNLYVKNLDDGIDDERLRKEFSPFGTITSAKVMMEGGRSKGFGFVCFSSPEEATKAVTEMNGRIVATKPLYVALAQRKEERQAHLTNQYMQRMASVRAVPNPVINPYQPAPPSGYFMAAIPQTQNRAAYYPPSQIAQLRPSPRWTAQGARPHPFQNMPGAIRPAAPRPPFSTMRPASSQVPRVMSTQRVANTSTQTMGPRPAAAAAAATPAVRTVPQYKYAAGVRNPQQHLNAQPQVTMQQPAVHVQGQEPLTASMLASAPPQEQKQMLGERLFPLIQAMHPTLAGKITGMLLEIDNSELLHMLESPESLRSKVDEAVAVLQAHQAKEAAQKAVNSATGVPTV

Row | Compound | IC50 [1] | IC50 [2] | IC50 (Protein skinhead-1) | other results
1 | Cc1cccc(NC2SC(=O)NC2=O)c1 (stereo not drawn) | > 66 µM (inactive) | > 66 µM (inactive) | – | –
2 | CC(=O)c1cccc(NC(=O)N2CCCC2C(=O)Nc2c(C)cccc2C)c1 (stereo not drawn) | – | – | > 100 µM (inactive) | –
3 | COc1ccc(C2=NS(=O)(=O)N(C)C(C(=O)N3CCc4ccccc4C3)=C2)cc1OC | – | – | – | AC50 [3]: 4.99 µM (active); AC50 [4]: 69.3 µM (active); AC50 [5]: 4.43 µM (active)
4 | COc1cc2sc3ccc(C#Cc4ccc(N)cc4)cc3c(=O)c2cc1OC | – | – | > 100 µM (inactive) | –
5 | Cc1ccc(/C(O)=C/c2nc3ccccc3oc2=O)cc1 | – | – | – | EC50 [6]: > 300 µM (inconclusive); EC50 [7]: > 300 µM (inconclusive); IC50 (cells): 4.72 µM (active); EC50 [8]: 11.4 µM (active)
6 | CC(C)(C)c1nnc(N=C(S)Nc2ccccc2)s1 | > 66 µM (inactive) | > 66 µM (inactive) | – | –
7 | C[C@@H]1CN([C@H](C)CO)C(=O)c2cc(NS(=O)(=O)c3ccc(F)cc3)ccc2O[C@H]1CN(C)Cc1ccc(C(F)(F)F)cc1 | – | – | – | AC50 [9]: 33.9 µM (active)
8 | Cc1nn2cc(-c3ccc(Cl)cc3)nc2s1 | – | – | 15.6 µM (active) | –
9 | c1ccc2c(c1)OCCc1c-2[nH]c2ccccc12 | – | – | > 100 µM (inactive) | –
10 | NC(=O)COC(=O)c1ccc(Cl)c(S(=O)(=O)N2CCN(c3ccc(F)cc3)CC2)c1 | – | – | – | IC50 [10]: 13.8 µM (active)
11 | CC(c1ccccc1)N1CCc2[nH]c(=S)[nH]c(=O)c2C1 (stereo not drawn) | > 66 µM (inactive) | > 66 µM (inactive) | – | –
12 | Nc1n[nH]c(Sc2c([N+](=O)[O-])cc(C(F)(F)F)cc2[N+](=O)[O-])n1 | > 66 µM (inactive) | > 66 µM (inactive) | – | –
13 | COc1ccc(NC(=S)N/N=C2\CC(C)(C)Oc3ccc(OC)cc32)cc1 | > 66 µM (inactive) | > 66 µM (inactive) | – | –
